In paper PMC7043877, “Synthesis and evaluation of a prodrug of 5-aminosalicylic acid for the treatment of ulcerative colitis” (Iranian Journal of Basic Medical Sciences, 2019):

What was measured:
[1] = Pharmacokinetic study in rats after oral administration; assay type: in vivo, rat
Description: Twelve male Sprague-Dawley rats were randomly divided in two groups (n=6), the 5-ASA-ALA group and 5-ASA group. Rats were orally administered with a certain amount of 5-ASA-ALA (equivalent to 50 mg/kg of 5-ASA) and 5-ASA. At 0.25, 0.5, 1, 2, 4, 6 and 8 hr, blood samples were collected from the jugular vein and then centrifuged at 13000 g, 4 °C for 5 min to separate plasma. The plasma sample (0.1 ml) was mixed with methanol (0.4 ml), vortexed for 5 min and then centrifuged again. Finally, the supernatant was obtained, dried under nitrogen, dissolved in methanol and used for HPLC detection.

[2] = tested on: MPO activity in colonic tissues; experiment: TNBS-induced colitis: MPO activity in colonic tissues; assay type: in vivo, mice; conditions: P<0.01
Description: (§1) Colitis induction was performed based on the previous study ([20]). After a 12 hr of fast, mice were anesthetized with pentobarbital sodium (40 mg/kg of body weight). TNBS solution (0.1 ml dissolved in 50% ethanol, 2.5%) was injected into the colon of mice (3.5-4 cm from the anus), and then mice were kept head downward for 30 sec to prevent drug leakage. Twenty-four hr after the injection of TNBS, mice were administrated once daily for five continuous days with different drugs. Briefly, mice in treatment groups were administrated with a given dose of drugs by gavage (0.1 ml, equivalent to 100 mg/kg of 5-ASA) ([21]). Besides, mice in the control group and the positive group received a same volume of normal saline, and a physical mixture of 5-ASA and alanine, respectively. Forty-eight mice were randomly divided into four groups (n=12): 1) control (intragastric-gavage (ig), normal saline, no colitis induced), 2) TNBS (ig, normal saline), 3) positive (ig, 100 mg/kg 5-ASA+56 mg/kg alanine, dissolved in normal saline), 4) 5-ASA-ALA (ig, 156 mg/kg, dissolved in normal saline).
Colonic tissue samples were cleaned, dried and then suspended in HTAB solution (0.5%, pH=7.4), the final concentration of the tissue samples was 50 g/l. […] Finally, MPO activity in colonic tissues was detected by an assay kit according to the provider’s instructions.

colonic microflora = experiment: In vivo incubation in the colon of rats (with or without clindamycin pretreatment); conditions: incubation in rat colon for 8 hr
Description: Rats were randomly divided into two groups (n=6), the clindamycin group and the control group. Clindamycin was used as an inhibitor of the colonic microflora. Rats were administered with a certain dose of clindamycin (25 mg/kg of body weight) and an equivalent volume of normal saline by gavage, twice daily for three days, respectively. After that, rats were anesthetized by diethyl ether, their abdomen was cut open, and then 5-ASA-ALA solution (2 mg, dissolved in 1 ml of PBS, pH=7.4) was injected into their colon, finally, their colon was tied at both ends and their abdomen was sutured immediately ([18], [19]). Eight hr later, animals were sacrificed, the colon contents of rats were collected and homogenized in PBS (pH=7.4, 40 ml). The homogenate was then centrifuged, and the supernatant was obtained and mixed with four times the volume of methanol, finally, samples were centrifuged, filtered and analyzed by HPLC. The percent of hydrolysis of 5-ASA-ALA was calculated as follows: percent of hydrolysis %=(1-Wf/Wt)×100 where Wf is the free amount of 5-ASA in the colon contents and Wi is the initial amount of 5-ASA-ALA that administered to rats.

TNBS-induced colitis [3] = experiment: TNBS-induced colitis: survival rate and body weight of mice; assay type: in vivo; conditions: ig equivalent to 100 mg/kg of 5-ASA, once daily 5 days
Description: as §1
From day 0 of colitis induction, the body weight of each mouse and the death of each group were recorded daily. Finally, the degree of TNBS-induced colitis in mice of each group was evaluated based on the curves of weight changes and the final survival rate of mice for each group.

[4] = Stability study of 5-ASA-ALA in rat plasma and stomach, small intestine and colon contents (room temperature storage, freezing-thawing); assay type: in vitro ADME; conditions: all tissue samples at 0.4, 1.6 and 6.4 μg/ml, both storage conditions
Description: This study was tested at three concentration levels of 5-ASA-ALA to evaluate its in vitro stability in tissue samples and validate the HPLC method for 5-ASA-ALA analysis under different conditions. Briefly, five rats were anesthetized and sacrificed, and their abdomen was cut open through the middle. Their stomach contents, small intestine contents and colon contents were collected and mixed with hydrochloric acid buffer (pH=1.2) and phosphate buffered saline (PBS) (pH=6.8 and 7.4), respectively, and homogenized to 20% (w/v). Then 1.0 ml of 5-ASA-ALA solution (dissolved in corresponding buffers) was mixed with the same volume of rat plasma, freshly prepared stomach contents, small intestine contents and colon contents, respectively, with the final concentration of 0.4, 1.6 and 6.4 μg/ml. Samples were divided into two groups, stored at room temperature for 10 hr or went through the freezing-thawing cycles twice. At the end of the storage and the freezing-thawing cycle, samples were centrifuged at 13000 g for 10 min and mixed with methanol (0.4 ml), then the mixture was vortexed and centrifuged again. Finally, the supernatant was collected, concentrated with nitrogen, and dissolved in methanol for HPLC analysis ([15]). Each concentration level was tested five times and the RSD was calculated respectively.

[5] = tested on: GSH, MDA, GSH-Px and SOD in colonic tissues; experiment: TNBS-induced colitis: levels of GSH, MDA, GSH-Px and SOD in colonic tissues; assay type: in vivo, mice; conditions: P<0.01
Description: as §1
Clean and dried colonic tissues were homogenized in ice-cold normal saline, the resulting homogenate (10%, w/v) was centrifuged at 4 °C, 13000 g for 15 min. The obtained supernatant was diluted with normal saline to 1% (w/v), and the protein levels in the supernatant were measured by a BCA protein assay kit. The levels of GSH and MDA, and the activity of GSH-Px and SOD in the colonic tissues were measured by assay kits according to the provider’s instructions.

TNBS-induced colitis [6] = experiment: TNBS-induced colitis: disease activity index (DAI); assay type: in vivo, mice; conditions: compared with the positive control
Description: as §1
The disease activity index (DAI) of mice was scored and recorded daily from day 1 according to the scoring criteria (Table 1). […] The degree of fecal occult blood was evaluated by the ο-tolidine method ([22]), and scored based on the criteria reported by Kohn and kelly ([23]).

[7] = Transport study across Caco-2 monolayers (Papp); assay type: in vitro ADME, human; conditions: human, Caco-2
Description: (§2) Caco-2 cells were grown in DEME medium containing 10% FBS, 100 unit/ml peniciline, 100 µg/ml streptomycine, 2 mM glutamine, 1% sodium pyruvate and 1% non-essential amino acids at 37 °C in a humidified atmosphere of 95% air and 5% CO2. Cells were seeded on polycarbonate membranes (Transwell, diameter 24 mm, pore size 0.4 μm, Corning Costar, NY, USA) at 1×10^5 cells/well in a 6-well plate ([16]). Propranolol was used as a positive control.
(§3) Eight days later, Caco-2 cells reached 100% confluence and then were cultured for 18 days more. The culture medium was discarded, and then the apical (AP) and basal (BL) chambers were washed for 3 times with PBS. The culture medium was then replaced with 1 ml of propranolol or 5-ASA-ALA solution ([…]) in the AP chamber. In the BL chamber, 2 ml of PBS was added instead of the culture medium. The plate was incubated at 37 °C in an atmosphere of 95% air and 5% CO2 ([17]). After 0, 2, 4, 6, and 8 hr of incubation, the concentration of propranolol and 5-ASA-ALA in the BL chamber was measured by HPLC method, and the apparent permeability coefficient (Papp) of drugs was calculated as follows: […]
(§4) where dQ/dt (μmol/s) is the transport rate, C0 (μmol/cm^3) is the initial concentration in the donor chamber, and A (cm^2) is the surface area of insert filter membrane. Experiments were performed in triplicate.

Caco-2 cells [8] = experiment: Transport study across Caco-2 monolayers (Papp); assay type: in vitro ADME, human; conditions: compared with propranolol
Description: as §2, §3, §4

TNBS-induced colitis [9] = experiment: TNBS-induced colitis: colonic damage score (CDS) and colon index; assay type: in vivo, mice; conditions: vs positive control, P<0.05
Description: Colitis induction was performed based on the previous study ([20]). After a 12 hr of fast, mice were anesthetized with pentobarbital sodium (40 mg/kg of body weight). TNBS solution (0.1 ml dissolved in 50% ethanol, 2.5%) was injected into the colon of mice (3.5-4 cm from the anus), and then mice were kept head downward for 30 sec to prevent drug leakage. Twenty-four hr after the injection of TNBS, mice were administrated once daily for five continuous days with different drugs. Briefly, mice in treatment groups were administrated with a given dose of drugs by gavage (0.1 ml, equivalent to 100 mg/kg of 5-ASA) ([21]). […]
All mice were sacrificed on the 5th day of the experiment, their colonic tissues were excised, cut longitudinally, washed carefully with normal saline, and observed with a magnifying glass. The colonic damage score (CDS) was evaluated according to following scoring criteria: 0, no ulcer and colitis; 1, local hyperemia without ulcer; 2, ulcers without local hyperemia; 3, only one ulcerative and inflammatory lesion; 4, more than one ulcerative and inflammatory lesions; 5, more than 2 cm of continuous ulcer areas ([24]).
The entire colon samples were dried with filter papers, the length and weight of the samples were measured and recorded, respectively, in order to calculate the colon index of mice as the following formula: […]

[10] = In vitro incubation with colon contents of rats; assay type: in vitro ADME, rat
Description: Four g of colon contents of rats (n=6) were collected and mixed with 5-ASA-ALA solution (0.1 g/ml) in PBS (pH=7.4, 40 ml), the mixture was incubated under nitrogen atmosphere at 37 °C. At the time point of 0, 1, 2, 3, 4, 5, 6, 7, 8, 9 and 10 hr, the mixture (0.5 ml) was sampled and replaced with an equivalent volume of PBS. Samples were then centrifuged and filtered, the concentration of 5-ASA was detected by HPLC method. The experiment was conducted at seven concentration levels of 5-ASA-ALA (27.5, 50.0, 72.5, 105.0, 150.0, 200.0 and 305.0 μg/ml). The hydrolysis curve of each concentration was drawn, the linear regression was made to obtain regression equations, and the slope of each curve was regarded as the hydrolysis rate of 5-ASA-ALA.

Caco-2 cells [11] = conditions: Caco-2 cell monolayer, known value that justifies the positive control; no reference given; cited from earlier work
[12] = vs TNBS group, five days of treatment

## Nc1ccc(O)c(C(=O)O)c1 [5-ASA, 5-Aminosalicylic acid]
[1]; male, Sprague-Dawley, rat, oral administration, 50 mg/kg of 5-ASA, plasma
  Tmax: 30 min

## CC(NC(=O)c1cc(N)ccc1O)C(=O)O (centres unmarked) [5-ASA-ALA, 5-Aminosalicylic acid-alanine]
[2]; vs TNBS group
  MPO activity in colonic tissues: significantly reduced
[2]; vs positive control
  MPO activity in colonic tissues: obviously more effective than the positive control
Colonic microflora; clindamycin group (25 mg/kg twice daily, three days), P<0.01
  percent of hydrolysis: 5.26%
Colonic microflora; control group (normal saline)
  percent of hydrolysis: 89.14%
TNBS-induced colitis [3]; alleviated from the third day
  body weight: slight weight loss in the first two days
TNBS-induced colitis [3]; positive control vs 5-ASA-ALA group, n=12
  survival rate: no significant difference
[4]
  RSDs in all tissue samples: < 4%
[5]; [12]
  GSH level in colonic tissues: significantly higher
  GSH-Px activity in colonic tissues: higher activities
  MDA level in colonic tissues: significantly lower
  SOD activity in colonic tissues: higher activities
[5]; vs positive control
  reducing the MDA level in the colon: significantly greater effect
TNBS-induced colitis [6]
  DAI: more effective than the positive control
[7]; apical to basal direction, at 200 μmol/l
  Papp at 8 hr, 200 μmol/l: 2.63 ×10⁻⁶ cm/s
[7]; apical to basal direction, at 400 μmol/l
  Papp at 8 hr, 400 μmol/l: 1.73 ×10⁻⁶ cm/s
Caco-2 cells [8]
  absorption in the Caco-2 monolayer: significantly less than the propranolol
TNBS-induced colitis [9]
  CDS: significantly greater effect than the positive control
[10]; colon contents of rats, Figure 3
  concentration of 5-ASA-ALA above which the hydrolysis rate did not increase anymore (zero-order): above 200 µg/ml
[10]; colon contents, PBS pH 7.4, nitrogen, 37 °C, 0-10 hr
  5-ASA released from 5-ASA-ALA: gradually released
[1]; oral, equivalent to 50 mg/kg of 5-ASA, 0-8 hr
  plasma concentration: not detected

## CC(C)NCC(O)COc1cccc2ccccc12 (centres unmarked) [Propranolol, reference compound]
[7]; detected in this study, at 100 μmol/l
  Papp at 8 hr, 100 μmol/l: 24.8 ×10⁻⁶ cm/s
Caco-2 cells [11]
  Papp: 27.5 ×10⁻⁶ cm/s
